The structures appear in SMILES notation.

Assay [1] can be described thus: Diuretic effect on rats: urinary volume during a 5 hour period after oral administration. Type of assay: in vivo, Wister male rats. The conditions noted are these: 3 mg/kg oral; for Urine discharge (in words): Wister male rats; for Urinary volume relative to control: starved rats, 5 hour period after administration, control taken as 100%. How it is done:
About 16 hours before oral administration with 3 mg/kg of the compounds, the rats were starved, with only water available. The urinary volume during a 5 hour period after administration was compared with that of the control groups, taking the urinary volume of the latter as 100%.

Assay [2] deals with Carrageenan-Induced Edema in Rat Paws. The assay can be described thus: Anti-inflammatory effect on carrageenan-induced edema in rat paws (oral). The class given is in vivo, Wister male rats. To be noted: for % Inhibition of Foot Edema: 1 hour before carrageenan, swelling at third hour, control taken as 100%; for Inhibition of carrageenan-induced edema (in words): oral, Wister male rats. How it is done: One hour after oral administration with these compounds, the rats were subcutaneously injected with 0.1 m of 1% carrageenan suspension on the plantar surface of the right hind foot. The swelling was measured at the third hour of carrageenan injection. Anti-inflammatory effect of the compounds was determined as percentage inhibition of the swelling, taking the swelling in the control groups as 100%.

On to `Br.NCc1cc2c(c(I)c1O)CCCC2` [1-Iodo-3-aminomethyl-5,6,7,8-tetrahydro-2-naphthol Hydrobromide], for which, in assay [1], the “Urine discharge (in words)” value is recorded as “discharged increased amounts of urine” and the “Urinary volume relative to control” value worked out at 226%. The “% Inhibition of Foot Edema” value in assay [2] (10 mg/kg oral) is given as 68.8%. Besides, the “% Inhibition of Foot Edema” value in assay [2] (30 mg/kg oral) is on record as 69.6%. For the same compound, the “Inhibition of carrageenan-induced edema (in words)” value (shortened to “Inhibition … (in words)”) in assay [2] is recorded as “had carrageenan-induced edema in their paws inhibited”.

As to `CN(C)Cc1cc2c(c(I)c1O)CCCC2.Cl` [1-Iodo-3-(N,N-dimethylaminomethyl)-5,6,7,8-tetrahydro-2-naphthol Hydrochloride], in assay [1], the “Urine discharge (in words)” value is recorded as “discharged increased amounts of urine” and the “Urinary volume relative to control” value stood at 232%.

In the case of `Br.NCc1c(O)c(I)cc2c1CCCC2` [1-Aminomethyl-3-iodo-5,6,7,8-tetrahydro-2-naphthol Hydrobromide], the “Urine discharge (in words)” value in assay [1] is “discharged increased amounts of urine”. In addition, the “Urinary volume relative to control” value in assay [1] was 142%. In addition, the “% Inhibition of Foot Edema” value in assay [2] (10 mg/kg oral) came out at 55.6%; in assay [2] (30 mg/kg oral), 68.8%. Further, in assay [2], the “Inhibition … (in words)” value is reported as “had carrageenan-induced edema in their paws inhibited”.

Consider `CC1(C)CCCc2c1cc(CN)c(O)c2I.Cl` [1-Iodo-3-aminomethyl-5,5-dimethyl-5,6,7,8-tetrahydro-2-naphthol Hydrochloride], for which the “% Inhibition of Foot Edema” value in assay [2] (10 mg/kg oral) amounted to 44.1%; in assay [2] (30 mg/kg oral), 66.3%. Moreover, the “Inhibition … (in words)” value in assay [2] is “had carrageenan-induced edema in their paws inhibited”.

Take `Cl.NCc1cc2c(c(I)c1O)CCC2` [4-Iodo-6-aminomethyl-5-indanol Hydrochloride]: in assay [1], the “Urine discharge (in words)” value is “discharged increased amounts of urine” and the “Urinary volume relative to control” value is on record as 138%. Moreover, the “% Inhibition of Foot Edema” value in assay [2] (10 mg/kg oral) came out at 41.1%. In assay [2] (30 mg/kg oral), the “% Inhibition of Foot Edema” value is reported as 55.8%. The “Inhibition … (in words)” value in assay [2] is listed as “had carrageenan-induced edema in their paws inhibited”.

For the compound `CC1CCc2c1cc(CN)c(O)c2I.Cl` (stereo not shown) [1-Methyl-4-iodo-6-aminomethyl-5-indanol hydrochloride], in assay [1], the “Urine discharge (in words)” value is on record as “discharged increased amounts of urine” and the “Urinary volume relative to control” value was determined as 208%.

Source of the values: patent US4254056A, “2-Aminomethyl phenol derivative and process for preparing thereof” (Ono Pharmaceutical Co., Ltd., priority 1977, dated 1981).
